Data as given in patent US11733243B2, “Use of acamprosate to modulate ERK1/2 activation in animal models for FXS and ASD and individuals diagnosed with FXS and ASD” (Indiana University Research and Technology Corporation, priority 2013, dated 2023).
Where “and” joins values, the source holds several entries; their conditions need not be identical. Equal entries are not always repeated.

Test system: sAPP
Test: plasma sAPP total ELISA pre- and post-acamprosate
Type: in vivo, human
Excerpt: For sAPP levels, the Test plasma samples should be measured soon after collection. […] Just before assay, we thawed the test samples at a low temperature and mixed them completely. The plasma samples should be diluted appropriately with the EIA buffer, if needed. Duplicate measurement of test samples and standard are recommended. We used test samples in neutral pH range, and avoided the contaminations of organic solvent that may affect the measurement. Regarding the standard to quantify levels of sAPP, we prepared a series of sAPP standards in EIA buffer by serial dilutions, from 0.39 ng/mL to 25 ng/mL.
The ELISA plate was pre-coated with anti-human APP (R12A1) mouse IgG (IBL). First, the wells for reagent blank was determined, and 100 μL each of “EIA buffer” or 10 mM NaHCO3 buffer was added into the wells. Likewise, wells were assigned for test sample blank, test sample and diluted standard. Then 100 μL each of test sample blank, test sample and dilutions of standard was added into the appropriate wells. The test sample included the plasma sample from each subject, which may vary from 5-25 μl, made up to 100 μL with the EIA buffer. Each pre-coated plates was incubated overnight at 4° C. after covering it tightly with a plate lid. The plate was kept onto a rocker with gentle shaking. The next day, each well of the pre-coated plate was vigorously washed with wash buffer containing 0.05% Tween20 in phosphate buffer. This was performed by filling each well with wash buffer, leaving the pre-coated plate laid for 15-30 seconds and removing wash buffer completely from the plate by snapping. This procedure was repeated five times. After removing the remaining liquid from all wells completely by snapping the plate onto paper towel, we added 100 μL of labeled antibody solution into the wells of test samples, diluted standard and test sample blank. HRP labeled anti-Human APP (R101A4) mouse IgG from IBL was used. The plate was incubated for 30 minutes at 4° C. after covering it with plate lid, and then washed the plate 5 times in the same manner as described before. To develop the color, 100 μL of the Chromogen (TMB solution) was adding into the wells, and the plate was incubated for 30 minutes at room temperature in the dark.
When the liquid started turning blue (by addition of the Chromogen), 100 μL of the Stop solution (1N H2SO4) was added into the wells. […] A plate reader was used and measurements were conducted at 450 nm against a reagent blank. […]
The first project enrolled 12 youth aged 5 to 17 years with fragile X syndrome and comorbid ASD in a 10-week open-label trial of acamprosate. […] Plasma sAPP total and sAPPα were determined separately in serum using the ELISA kit obtained from Immuno Biological Laboratories (IBL, Gumma, Japan). […]

SMILES: CC(=O)NCCCS(=O)(=O)O [Acamprosate, 3-Acetamidopropane-1-sulfonic acid]
- fractional change in sAPP(total)-CP from Baseline to Week 12 (individual patients 1-6): −0.8279 and −0.3066 and −0.0102 and −0.1029 and −0.437 and −0.544
- sAPP(total)-CP level, Week 12 (individual patients 1-6, after treatment): 5.561 ng/mL and 25.16 ng/mL and 12.84 ng/mL and 8.077 ng/mL and 56.8 ng/mL and 7.547 ng/mL
- mean sAPP total post-treatment (pooled 15 participants (9 FXS, 6 idiopathic ASD), 1,054 mg/day, pre-treatment 32.6±38.3, p=0.01): 21.4 ± 32.3 ng/mL
- mean sAPP total at endpoint (six subjects, idiopathic ASD trial, baseline 34.7, p=0.02): 19.3 ng/mL
